{"source": "patent US20240261294A1", "about": "“METHOD FOR TREATING IDH INHIBITOR-RESISTANT SUBJECTS” (Eli Lilly and Company, priority 2021, published 2024)", "origin": "cited, not measured here", "system": "IDH2-Q316E and IDH2-1319M", "conditions": "preclinical studies; cited from earlier work"}
{"smiles": "CC(C)(O)CNc1nc(Nc2ccnc(C(F)(F)F)c2)nc(-c2cccc(C(F)(F)F)n2)n1", "note": "[enasidenib]", "values": [{"measurement": "binding and inhibition of the mutant enzymes", "value": "no longer able to bind and inhibit the mutant enzymes"}]}
